Assay results from patent US20230218559A1, “Compositions and Methods for Treating Aging and Age-Related Diseases and Symptoms” (The Regents of the University of California, priority 2014, published 2023).
Values belong to the compound of their own block, whether it stands above or below them.

What was measured:
[1] = test system: normal human diploid fibroblasts WI-38; experiment: Cell growth assay; assay type: cell-based; details: data not shown
Protocol: (§1) Cells were seeded in 12-well plates and after overnight incubation were treated with indicated concentrations of each compound. After harvesting, cells were stained by Acridine Orange (AO) and DAPI. Cell number and viability were measured based on AO and DAPI fluorescence measured by NC3000 (Chemometec) following the manufacturer's instructions.

[2] = test system: A549; experiment: Cell growth assay; assay type: cell-based, human; details: data not shown
Protocol: as §1

[3] = test system: Jurkat; experiment: Cell growth assay; assay type: cell-based, human; details: data not shown
Protocol: as §1

[4] = test system: HEK 293 cells; experiment: Cell growth assay; assay type: cell-based, human; details: data not shown
Protocol: as §1

[5] = test system: electron transport chain (Complex I, Complex II, Complex IV); experiment: Mitochondrial electron flow assay; assay type: biochemical, mouse
Protocol: Mitochondria were isolated from mouse liver as described above.
For the electron flow assay, the MAS buffer was supplemented with 10 mM sodium pyruvate (Complex I substrate), 2 mM malate (Complex II inhibitor), and 4 μM FCCP, and the mitochondria are seeded the same way as described for the coupling assay. After basal readings, the sequential injections were as follows: 2 μM rotenone (Complex I inhibitor), 10 mM succinate (Complex II substrate), 4 μM antimycin A (Complex III inhibitor), and 10 mM/100 μM ascorbate/tetramethylphenylenediamine (Complex IV substrate).

[6] = biological target: T1, ATP synthase (Complex V) (Mus musculus, UniProt P56480); experiment: Mitochondrial coupling assay / respiratory control ratio; assay type: biochemical; details: mouse liver mitochondria
T1 construct: Mitochondria were isolated from mouse liver as described above; from tissue; host or cells: isolated mouse liver mitochondria
Protocol: Mitochondrial RCR was analyzed using isolated mouse liver mitochondria (see Brand, et al. Biochem J 435, 297-312 (2011) and references therein). Mitochondria were isolated from mouse liver as described above. The final mitochondrial pellet was resuspended in 30 μl of MAS buffer (70 mM sucrose, 220 mM mannitol, 10 mM KH2PO4, 5 mM MgCl2, 2 mM HEPES, 1 mM EGTA, and 0.2% fatty acid free BSA, pH 7.2).
Isolated mitochondrial respiration was measured by running coupling and electron flow assays as described (Rogers, et al. PLoS One 6, e21746 (2011)). For the coupling assay, 20 μg of mitochondria in complete MAS buffer (MAS buffer supplemented with 10 mM succinate and 2μM rotenone) were seeded into a XF24 Seahorse plate by centrifugation at 2,000×g for 20 minutes at 4° C. […] Mitochondrial respiration begins in a coupled State 2; State 3 is initiated by 2 mM ADP; State 4o (oligomycin-insensitive, i.e., Complex V-independent) is induced by 2.5 μM oligomycin and State 3u (FCCP uncoupled maximal respiratory capacity) by 4 μM FCCP. Finally, 1.5 μg/ml antimycin A was injected at the end of the assay.

[7] = test system: C. elegans; experiment: C. elegans lifespan analysis; assay type: in vivo, Caenorhabditis elegans; details: for mean lifespan: 8 mM; for effect on lifespan of adult C. elegans (in words): adult worms, metabolites at 8 mM; for lifespan of subjects (in words): experiments similar to those for α-KG and 2-HG compounds, data not shown
Protocol: Lifespan assays were conducted at 20° C. on solid nematode growth media (NGM) using standard protocols and were replicated in at least two independent experiments. […] All compounds were mixed into the NGM media after autoclaving and before solidification of the media. Assay plates were seeded with OP50 (or a designated RNAi feeding clone, see below). Worms were moved to new assay plates every 4 days (to ensure sufficient food was present at all times and to reduce the risk of mold contamination). […] For analysis concerning mutant strains, the corresponding parent strain was used as a control in the same experiment. […]
Lifespan data is provided in FIG. 13, including sample sizes. The sample size was chosen on the basis of standards done in the field in published manuscripts. No statistical method was used to predetermine the sample size. Animals were assigned randomly to the experimental groups. […] Lifespan data were analyzed using GraphPad Prism; P-values were calculated using the log-rank (Mantel-Cox) test.

[8] = biological target: T2, ATP5B (Homo sapiens, UniProt P06576); experiment: DARTS (drug affinity responsive target stability) with Western blotting; assay type: binding; details: human cell lysates, Pronase digestion
T2 construct: HeLa cells were lysed in M-PER buffer; endogenous in cells; host or cells: HeLa (alpha-KG); U87 (2-HG)
T2 sequence (P06576 48-529): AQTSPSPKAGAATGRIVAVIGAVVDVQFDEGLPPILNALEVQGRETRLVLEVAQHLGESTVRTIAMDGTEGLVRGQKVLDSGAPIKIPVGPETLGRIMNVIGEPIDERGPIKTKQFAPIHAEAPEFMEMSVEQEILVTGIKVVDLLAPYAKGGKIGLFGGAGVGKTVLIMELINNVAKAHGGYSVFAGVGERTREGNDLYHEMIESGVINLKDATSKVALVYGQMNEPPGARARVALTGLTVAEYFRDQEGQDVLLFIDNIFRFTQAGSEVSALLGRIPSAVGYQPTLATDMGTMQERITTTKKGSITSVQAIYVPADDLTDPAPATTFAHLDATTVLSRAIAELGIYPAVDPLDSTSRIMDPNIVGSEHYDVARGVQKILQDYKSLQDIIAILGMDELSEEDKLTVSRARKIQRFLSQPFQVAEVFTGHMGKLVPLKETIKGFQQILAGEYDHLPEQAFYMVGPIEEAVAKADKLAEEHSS
Protocol: Target identification using DARTS was conducted in accordance with methods know in the art. […] The resulting digests were separated by SDS-PAGE and visualized using SYPRO Ruby Protein Gel Stain (Invitrogen, S12000).
GAPDH (Ambion, AM4300) was used as a negative control.
For 2-HG experiments, DARTS was performed as described above.

[9] = test system: U87 cells; experiment: Cell growth and viability assays in U87 cells; assay type: cell-based, human
Protocol: IDH1(R132H) mutant or IDH1(WT) expressing U87 cells were as reported (Li, et al. Neuro Oncol 15, 57-68). […] All the cells were cultured at 37° C. and 5% CO2. Cells were transfected with indicated siRNA using Thermo Scientific DharmaFECT Transfection Reagent 1 by following the manufacturer's instructions.
as §1

[10] = test system: U87 cells; experiment: Oxygen consumption rate in U87 cells (2-HG experiments); assay type: cell-based, human
Protocol: For 2-HG experiments, OCR and ECAR measurements were made using a Seahorse XF-24 analyzer (Seahorse Bioscience) (Wu, et al. Am J Physiol Cell Physiol 292, C125-136 (2007)). U87 cells were seeded in Seahorse XF-24 cell culture microplates at 50,000 cells per well in DMEM supplemented with 10% FBS and either 10 mM glucose or 10 mM galactose, and incubated 0/N at 37° C. in 5% CO2. […] Cells were washed in unbuffered DMEM (pH 7.4, 10 mM glucose) immediately prior to measurement, and maintained in this buffer with indicated concentrations of compound. OCR or ECAR were measured 3 times under basal conditions and normalized to protein concentration per well. Statistical analysis was performed using GraphPad Prism (unpaired t-test, two-tailed, two-sample unequal variance).

[11] = test system: U87 cells; experiment: Assay for ATP levels in U87 cells; assay type: cell-based, human; details: mitochondrial oxidative phosphorylation conditions, 2 hours
Protocol: For 2-HG experiments, U87 cells were seeded in 96-well plates at 2×10^4 cells per well and treated with indicated compound for 2 hours in triplicate. ATP levels were measured using the CellTiter-Glo luminescent ATP assay (Promega, G7572); luminescence was read using Analyst HT (Molecular Devices). […] Statistical analysis was performed using GraphPad Prism (unpaired t-test).

[12] = test system: U87 cells
Protocol: Cells were cultured for 24 hours, rinsed with PBS, and medium containing [1,2-^13C]glucose (1 g/L) added. […] Cells were scraped off, transferred to an Eppendorf tube, and 10 nmol norvaline as well as 400 ml chloroform added to each sample. For the metabolite extraction, samples were vortexed for 5 minutes on ice, spun down, and the aqueous layer transferred into a glass vial and dried. Metabolites were resuspended in 70% ACN, and 5 ml sample loaded onto a Phenomenex Luna 3u NH2 100A (150×2.0 mm) column. The chromatographic separation was performed on an UltiMate 300RSLC (Thermo Scientific) with mobile phases A (5 mM NH4AcO, pH 9.9) and B (ACN) and a flow rate of 300 ml / minutes. […] TraceFinder 3.1 (Thermo Scientific) was used to quantify metabolites as area under the curve using retention time and accurate mass measurements (≤3 ppm). Relative amounts of metabolites were calculated by summing up all isotopomers of a given metabolite.

[13] = test system: ADP import into the mitochondria; experiment: Assay for ADP import; assay type: biochemical; details: mouse liver mitochondria, 600 μM; (R) P=0.4237, (S) P=0.1623
Protocol: Freshly prepared mice liver mitochondria were suspended at 1 μg/μl in medium consisting of 220 mM mannitol, 70 mM sucrose, 2 mM HEPES, 2.74 μM antimycin A, 5 μM rotenone, 1 mM
EGTA, and 10 mM potassium phosphate buffer, pH 7.4. The mitochondria suspension was incubated with designated drug for 30 minutes in 37° C. After incubation, the suspension was transferred to ice for 10 minutes incubation. Afterwards, 100 μM [^3H]ADP (specific radioactivity, 185 kBq/pmol) was added, and the mixture was immediately vortexed and incubated for 20 seconds on ice. The reaction was terminated by addition of 10 μM carboxyatractyloside, and the mixture was centrifuged at 10,000 g for 10 minutes at 4° C. After centrifuge, the supernatant was collected for reading and the pellet was washed twice with the same medium supplemented with 10 μM carboxyatractyloside. After washing, the pellet was lysed by the addition of 0.2 ml of 1% SDS. The radioactivity of the lysate and supernatant was determined by TRI-CARB 2300 TR liquid scintillation analyzer. The ADP-ATP translocation rate was determined by the ratio of the pellet versus the sum reading of the pellet and supernatant.

[14] = test system: C. elegans; experiment: Assay for autophagy in C. elegans (GFP::LGG-1 puncta); assay type: in vivo, Caenorhabditis elegans
Protocol: Statistical analysis was performed using Microsoft Excel (t-test, two-tailed, two-sample unequal variance).

[15] = test system: AMPK; experiment: AMPK (T172) phosphorylation by Western blotting; assay type: cell-based, human; details: WI-38 cells; higher concentration of octyl α-KG
Protocol: Western blotting was performed with specific antibodies against P-AMPK T172 (Cell Signaling Technology, 2535S) and AMPK (Cell Signaling Technology, 2603S). […] Number of GFP::LGG-1 containing puncta was quantitated using ImageJ. Bars indicate the mean. […] HEK-293 (Panel d) or HeLa (Panel e) cells were lysed in M-PER buffer (Thermo Scientific, 78501) with the addition of protease inhibitors (Roche, 11836153001) and phosphatase inhibitors (50 mM NaF, 10 mM β-glycerophosphate, 5 mM sodium pyrophosphate, 2 mM Na3VO4). Protein concentration of the lysate was measured by BCA Protein Assay kit (Pierce, 23227). […] Pronase (Roche, 10165921001) digestions were performed for 20 minutes at room temperature, and stopped by adding SDS loading buffer and immediately heating at 95° C. for 5 minutes (for Panel d) or 70° C. for 10 minutes (for Panel e). Samples were subjected to SDS-PAGE on 4-12% Bis-Tris gradient gel (Invitrogen, NP0322BOX) and Western blotted with specific antibodies against ATP5B (Santa Cruz, sc58618), mTOR (Cell Signaling Technology, 2972), or GAPDH (Ambion, AM4300). ImageJ was used to quantify the mTOR/GAPDH and ATP5B/GAPDH ratios.

[16] = test system: mTOR; experiment: Assay for mammalian TOR (mTOR) pathway activity; assay type: cell-based, human; details: U87 cells
Text: Specific antibodies used: P-S6K T389 (Cell Signaling Technology, 9234), S6K (Cell Signaling Technology, 9202S), P-4E-BP1 S65 (Cell Signaling Technology, 9451S), 4E-BP1 (Cell Signaling Technology, 9452S), P-AKT S473 (Cell Signaling Technology, 4060S), AKT (Cell Signaling Technology, 4691S), P-ULK1 S757 (Cell Signaling Technology, 6888), ULK1 (Cell Signaling Technology, 4773S), and GAPDH (Santa Cruz Biotechnology, 25778).

Structure (SMILES): O=C(O)CCC(O)C(=O)O (stereo not shown) [2-HG, 2-hydroxypentanedioate]
cell growth [1]: Growth inhibition
cell growth [2]: Growth inhibition
cell growth [3]: Growth inhibition
cell growth [4]: Growth inhibition

coupling assay, 1-octyl versus 5-octyl ester [6]: identical results
Structure (SMILES): CCCCCCCCOC(=O)CCC(=O)C(=O)O [5-octyl α-KG, 5-(Octyloxy)-2,5-dioxopentanoic acid]
electron flow assay, 1-octyl versus 5-octyl ester ([5]; mouse liver mitochondria): identical results

binding to ATP5B by DARTS [8]: bind
Structure (SMILES): O=C(O)CC[C@@H](O)C(=O)O [(R)-2-HG, 2-hydroxyglutaric acid]
mean lifespan ([7]; FIG. 14 Panel B, vehicle 14.0): 20.0 days of adulthood
effect on lifespan of adult C. elegans (in words) [7]: increase the lifespan

binding to ATP5B by DARTS [8]: bind
Structure (SMILES): O=C(O)CC[C@H](O)C(=O)O [(S)-2-HG, 2-hydroxyglutaric acid]
mean lifespan ([7]; FIG. 14 Panel C, vehicle 15.7): 20.7 days of adulthood
effect on lifespan of adult C. elegans (in words) [7]: increase the lifespan

Structure (SMILES): N[C@H](CCC(=O)O)C(=O)O [D-glutamate]
lifespan of subjects (in words) [7]: increases the lifespan

Structure (SMILES): N[C@@H](CCC(=O)O)C(=O)O [L-glutamate]
lifespan of subjects (in words) [7]: increases the lifespan

Structure (SMILES): CC(C)C[C@H](N)C(=O)O [Leu]
mean lifespan ([7]; FIG. 14 Panel B, vehicle 14.0): 13.2 days of adulthood

Structure (SMILES): CSCC[C@H](N)C(=O)O [Met]
mean lifespan ([7]; FIG. 14 Panel B, vehicle 14.0): 14.7 days of adulthood

Structure (SMILES): O=C([O-])CCC(=O)C(=O)[O-].[Na+].[Na+] [Na2α-KG]
mean lifespan ([7]; FIG. 14 Panel C, vehicle 15.7): 21.5 days of adulthood

accumulation of 2-HG in treated cells [12]: 20-100 fold
state 3 respiration ([6]; 600 μM, octanol vehicle): decreases
state 4o or 3u respiration ([6]; 600 μM, octanol vehicle): not
Structure (SMILES): CCCCCCCCOC(=O)C(O)CCC(=O)O (stereo not shown) [octyl 2-HG]
growth rate ([9]; glucose medium, to a lesser extent, not shown): reduced
growth rate ([9]; glucose-free medium, 400 μM and 800 μM): decreased growth rate
ATP synthase dependent (oligomycin sensitive) oxygen consumption rate ([10]; U87 cells): decreased
respiration as indicated by OCR ([10]; U87 cells in glucose media): decreased
Complex I, Complex II, or Complex IV respiration ([5]; 30 minute treatment, 600 μM): No difference
ATP content [11]: decreased

Structure (SMILES): CCCCCCCCOC(=O)[C@H](O)CCC(=O)O [octyl (R)-2-HG, 1-Octyl (R) 2-hydroxypentanedioate]
ADP import [13]: does not affect
viability upon glucose starvation ([9]; 400 μM and 800 μM): decreased

Structure (SMILES): CCCCCCCCOC(=O)[C@@H](O)CCC(=O)O [octyl (S)-2-HG, 1-Octyl (S) 2-hydroxypentanedioate]
ADP import [13]: does not affect
viability upon glucose starvation ([9]; 400 μM and 800 μM): decreased

Structure (SMILES): CC[C@H]1/C=C/C=C/C[C@@H](C)[C@H](O)[C@@](C)(O)C(=O)[C@@H](C)[C@H](O)[C@@H](C)C(=O)[C@@H](C)[C@H](O)[C@@H](C)/C=C/C(=O)O[C@@H]2[C@H](C)[C@H](CC1)O[C@]1(CC[C@H](C)[C@H](C[C@@H](C)O)O1)[C@H]2C [oligomycin, reference compound]
autophagy (GFP::LGG-1 puncta) ([14]; CeTOR(RNAi) worms, oligomycin): does not augment
autophagy (GFP::LGG-1 puncta) ([14]; L3 epidermis, oligomycin 40, α-KG 8 mM, versus vehicle): significantly higher
P-AMPK (T172) [15]: increased
ATP content [11]: decreased
increase of mean lifespan of N2 worms ([7]; 40 μM, from young adult stage): 32.3%
effect on lifespan of adult C. elegans (in words) [7]: extends the lifespan
phosphorylation of mTOR substrates [16]: decreased
